According to US20140128399A1, “METHODS AND COMPOSITIONS FOR TREATING URINARY TRACT INFECTIONS USING AGENTS THAT MIMIC OR ELEVATE CYCLIC AMP” (DUKE UNIVERSITY, priority 2007, published 2014):

Assays:
[1] = test system: 5637 BECs; assay: β-hexosaminidase release assay; format: cell-based, human; conditions: for release of β-hexosaminidase into extracellular media: uninfected 5637 BECs, 1 hr, forskolin 100 μM, dibutyryl-cAMP 1 mM, calcium ionophore 1 μM; for release of β-hexosaminidase from E. coli-infected BECs: E. coli ORN103(pSH2)-infected 5637 BECs, NiCl2 2 mM, H89 10 μM
[2] = test system: E. coli CI5; assay: In vivo bladder infection, 2-h-long infection, intracellular bacterial CFU; parameters: species or system mouse; conditions: BALB/c mice, forskolin 2 h after infection, i.p. 10 mg/kg and by catheter 100 μM
Experimental: (§1) In this procedure, 8-week-old female BALB/c mice were anesthetized with sodium pentobarbital and then inoculated transurethrally with 50 μl of either E. coli CI5 or a bacterial suspension (approximately 1.0×10^8 CFU) suspended in PBS. After 2 h, the bladders were removed aseptically. Then the bladders were either bisected and fixed with 2% paraformaldehyde plus 2% gluteraldehyde in PBS (for transmission electron microscopy) or frozen for immunofluorescence microscopy. For the 2-h-long infections with E. coli and S. enterica SL1344, BALB/c mice were infected as above. After 2 h, the mice were intraperitoneally injected with 100 μl PBS (with or without 10 mg/kg forskolin) and intravesicularly instilled, for 1 h, with 100 μg/ml gentamicin in PBS (with or without 100 μM forskolin). For the 24-h-long infections, BALB/c mice were infected. After 24 h, the mice were intravesicularly instilled with 50 μl of PBS (with or without 100 μM forskolin) for 1 h. The 100 μM forskolin in PBS was replaced by 100 μg/ml gentamicin in PBS for 30 min. The bladders were then removed aseptically and homogenized them in 0.1% Triton X-100 in PBS. Homogenate dilutions were plated for colony counts.

[3] = test system: S. enterica SL1344; assay: as above; parameters: species or system mouse; conditions: BALB/c mice, forskolin 2 h after infection, i.p. 10 mg/kg and by catheter 100 μM
Experimental: as §1

[4] = test system: bacteria; assay: Bacterial viability (data not shown)
[5] = test system: fusiform vesicles of mouse bladder BECs; assay: Immunofluorescence of bladder sections (Rab27b); format: in vivo; conditions: mouse bladders, antibodies to Rab27b, forskolin 100 μM 1 h
Experimental: Balb/c mice were either infected with E. coli CI5 as above, or they were treated with either 100 μM forskolin or PBS for 1 h through a catheter. Frozen sections of these bladders were cut using standard methods. Each section was fixed in 100% ethanol for 20 min at −20° C., and blocked in PBS with 1% BSA for 1 h at 4° C. Sections were incubated overnight at 25° C. with primary antibodies to either Rab27b (Santa Cruz Biotechnology, Inc., Santa Cruz, Calif.) or UPIII (Santa Cruz Biotechnology), and washed. Sections were incubated for 1 h at room temperature with secondary antibodies, and washed. To visualize the nuclei, the sections were incubated with Hoechst-33258 for 5 min at room temperature and then washed. All dilutions and washes were with PBS and 1% BSA. Coverslips were viewed as described previously.

[6] = test system: E. coli CI5; assay: In vivo bladder infection, 24-h-long infection, intravesicular forskolin; parameters: species or system mouse; conditions: Balb/c mice
Experimental: as §1

[7] = test system: E. coli CI5; assay: In vivo bladder infection with 3-d-long forskolin regimen; parameters: species or system mouse; conditions: C3H/HeJ mice, forskolin 10 mg/kg i.p. at 6, 24 and 48 h; at 72 h; P≦0.03
Experimental: In this procedure, 8-week-old female C3H/HeJ mice were infected with E. coli CI5 as above. At 6, 24 and 48 h after infection, the mice were intraperitoneally injected with 100 μl PBS, with or without 10 mg/kg forskolin. At 72 h after infection, bladders were aseptically removed and plated for colony counts.

[8] = test system: IL-6; assay: IL-6 ELISA of urine; format: in vivo, mouse
Experimental: In this assay, 8-week-old female C3H/HeJ mice were infected with E. coli CI5 as above. After 6 h, the mice were intraperitoneally injected with 100 μl of PBS, with or without 10 mg/kg forskolin. Urine was collected at 6 and 24 h after infection, using clean catch methods, and the samples were stored at −80° C. The concentration of IL-6 in the urine was determined using the mouse IL-6 ELISA kit (eBioscience, San Diego, Calif.) according to the manufacturer's protocol.

[9] = test system: E. coli ORN103(pSH2) invasion into 5637 BECs; assay: Gentamicin protection assay, UPEC invasion; format: cell-based, human; conditions: dilution 1:10
Experimental: (§2) A gentamicin protection assay, including 5637 BECs on 96-well plates (40,000 cells/well), was used to determine the effect of forskolin on UPEC invasion. In this example, the UPEC was either J96 or E. coli ORN103(pSH2). 50 μM forskolin was administered as a pretreatment for 15 min before infection or administered at the same time as the bacteria.

[10] = test system: UPEC J96 invasion into 5637 BECs; assay: Gentamicin protection assay, UPEC invasion; format: cell-based, human; conditions: dilution 1:10
Experimental: as §2

[11] = test system: UPEC strain CI5; assay: In vivo gentamicin protection assay, UPEC colonization of the bladder; parameters: species or system mouse; conditions: IP Fsk/Cather Fsk, 1 hr treatment
Experimental: An in vivo gentamicin protection assay was used to determine the effect of forskolin on UPEC colonization of the bladder. In this example, UPEC strain CI5 was injected into the bladder via catheter to initiate a urinary tract infection. After 2 hours of infection, the mice were re-catheterized, the urine was removed, and the bladder was treated with 100 uM forskolin in PBS for 1 hour. After the forskolin treatment, 100 ug/ml gentamicin in PBS was injected into the bladder via catheter for 30 minutes. The bladders were then removed, washed in sterile PBS, and homogenized. The homogenates were plated on LB agar for overnight colony counts at various dilutions. Control mice were treated with PBS alone instead of forskolin plus PBS. The top half of Table 3 represents the raw colony counts while the bottom half of Table 3 represents the calculated bladder load of UPEC strain C15 based on the dilutions.

[12] = test system: E. coli ORN103(pSH2) within 5637 BECs; assay: Intracellular bacteria survival assay (antibiotic protection); format: cell-based, human; conditions: NH4Cl 10 mM, 50 mM; Bafilomycin 1 μM
Experimental: In this assay, 5637 BECs were infected with ORN103(pSH2) E. coli diluted in RPMI 1640 medium at a multiplicity of infection (MOI) of 100:1. Cells were centrifuged for 5 min at 600 g, and incubated for 60 min at 37° C. Next, the cells were incubated with 100 μg/ml of gentamicin (Invitrogen) in RPMI medium for 30 min, and then with 10 μg/ml gentamicin in RPMI medium. At each time point, the cells were washed using PBS, solubilized with 0.1% Triton X-100 in PBS and plated for colony counts.

[13] = test system: E. coli ORN103(pSH2)-infected 5637 BECs; assay: Bacterial exocytosis assay; format: cell-based, human; conditions: inhibitors added during gentamicin incubation; H89 10 μM, NiCl2
Experimental: In this assay, 5637 BECs were infected with bacteria as above. Infection continued for 60 min, and then the cells were washed with culture medium (including 100 μg/ml gentamicin and 100 mM methyl α-D-mannopyranoside (Sigma, St. Louis, Mo.)) for an additional 30 min. The cells were then washed twice and then allowed to incubate for 1-4 h with fresh culture medium containing 100 mM methyl α-D-mannopyranoside. At each time point, the culture medium and one wash of 100 μl of culture medium with methyl α-D-mannopyranoside were collected and pooled. The inhibitors H89 (10 μM) and NiCl2 ([…]) were added during the gentamicin incubation and left in the culture medium. All homogenates and pooled culture medium were cultured for colony counts. All exocytosis assays had n=12 wells of a 96-well plate.

[14] = SH2, 50 μM forskolin at the same time as the bacteria
[15] = SH2, 50 μM forskolin pretreatment 15 min before infection
[16] = J96, 50 μM forskolin at the same time as the bacteria
[17] = J96, 50 μM forskolin pretreatment 15 min before infection

## C[C@H](CCC(=O)O)C[C@H](C)C[C@H](C)C(=O)/C=C(\O)[C@H](C)C[C@H](C)C/C=C/[C@@H](C)[C@@H](O)[C@@H](C)[C@@H](O)C[C@@H]1CC[C@@](C)([C@H]2CC[C@@](C)([C@@H](C)O)O2)O1 [calcium ionophore, ionomycin]
[1]
  release of β-hexosaminidase into extracellular media: stimulated the BECs to release appreciable levels of β-hexosaminidase

## C=C[C@@]1(C)CC(=O)[C@]2(O)[C@@]3(C)[C@@H](O)CCC(C)(C)[C@@H]3[C@H](O)[C@H](OC(C)=O)[C@@]2(C)O1 [forskolin]
[1]
  release of β-hexosaminidase into extracellular media: stimulated the BECs to release appreciable levels of β-hexosaminidase
[2]
  intracellular E. coli CI5 eliminated: over 99%
[3]
  effect on intracellular S. enterica SL1344: no effect
[4]
  effect on bacterial viability: no effect
[5]
  translocation of fusiform vesicles to the apical plasma membrane: translocation of fusiform vesicles to the apical plasma membrane of mouse bladders was detected
[6]; intravesicular forskolin 100 μM 24 h after infection, P≦0.033
  reduction in the number of E. coli CI5 within bladder compared to saline-treated controls: 79.4%
[6]; intravesicular forskolin 24 h after infection, control 33%, P≦0.01
  mice harboring >10^5 bacteria in their bladders: 4.1%
[7]
  decrease of average bacterial load within the bladders compared to control mice: 56%
[8]; E. coli CI5-infected C3H/HeJ mice, 18 h after forskolin 10 mg/kg i.p., P≦0.0003
  decrease in urine IL-6: 99.6%
[8]; forskolin treatment alone, uninfected mice
  IL-6 levels in uninfected mice: did not alter IL-6 levels
[9]; [14]
  intracellular bacteria, Mean: 10575 colony counts
  intracellular bacteria, replicate 1: 10980 colony counts
  intracellular bacteria, replicate 2: 8260 colony counts
  intracellular bacteria, replicate 3: 14140 colony counts
  intracellular bacteria, replicate 4: 8920 colony counts
[9]; [15]
  intracellular bacteria, Mean: 9553 colony counts
  intracellular bacteria, replicate 1: 8860 colony counts
  intracellular bacteria, replicate 2: 9060 colony counts
  intracellular bacteria, replicate 3: 10740 colony counts
[10]; [16]
  intracellular bacteria, Mean: 545 colony counts
  intracellular bacteria, replicate 1: 800 colony counts
  intracellular bacteria, replicate 2: 640 colony counts
  intracellular bacteria, replicate 3: 460 colony counts
  intracellular bacteria, replicate 4: 280 colony counts
[10]; [17]
  intracellular bacteria, Mean: 535 colony counts
  intracellular bacteria, replicate 1: 720 colony counts
  intracellular bacteria, replicate 2: 140 colony counts
  intracellular bacteria, replicate 3: 200 colony counts
  intracellular bacteria, replicate 4: 1080 colony counts
[11]
  Percent Control (bladder load), Average: 0.41%
  Percent Control (bladder load), mouse 1: 0.45%
  Percent Control (bladder load), mouse 2: 0.22%
  Percent Control (bladder load), mouse 3: 0.56%
  raw colony counts of bladder homogenate, Average: 83 colony counts
[11]; based on the dilutions
  calculated bladder load of UPEC strain CI5, Average: 1653 colony counts
  calculated bladder load of UPEC strain CI5, mouse 1: 1820 colony counts
  calculated bladder load of UPEC strain CI5, mouse 2: 900 colony counts
  calculated bladder load of UPEC strain CI5, mouse 3: 2240 colony counts
[11]; dilution 1:1
  raw colony counts of bladder homogenate, mouse 1: 91 colony counts
  raw colony counts of bladder homogenate, mouse 2: 45 colony counts
  raw colony counts of bladder homogenate, mouse 3: 112 colony counts

## Cl.N [NH4Cl]
[12]
  E. coli ORN103(pSH2) persistence within 5637 BECs: caused no improvement

## CO/C1=C\C(C)=C\[C@@H](C)[C@@H](O)[C@@H](C)C/C(C)=C/C=C/[C@H](OC)[C@@H]([C@@H](C)[C@@H](O)[C@H](C)[C@@]2(O)C[C@@H](O)[C@H](C)[C@@H](C(C)C)O2)OC1=O [Bafilomycin]
[12]
  E. coli ORN103(pSH2) persistence within 5637 BECs: caused no improvement

## [Cl][Ni][Cl] [NiCl2]
[1]
  release of β-hexosaminidase from E. coli-infected BECs: regulatable
[13]
  E. coli ORN103(pSH2) exocytosis into antibiotic-free medium: reduced

## O=S(=O)(NCCNC/C=C/c1ccc(Br)cc1)c1cccc2cnccc12 [H89]
[1]
  release of β-hexosaminidase from E. coli-infected BECs: regulatable
[13]
  E. coli ORN103(pSH2) exocytosis into antibiotic-free medium: reduced

## CCCC(=O)Nc1ncnc2c1ncn2[C@@H]1O[C@@H]2COP(=O)(O)O[C@H]2[C@H]1OC(=O)CCC [dibutyryl-cAMP]
[1]
  release of β-hexosaminidase into extracellular media: stimulated the BECs to release appreciable levels of β-hexosaminidase
